Assay results as given in ChEMBL document CHEMBL5500349, “Discovery of ganoderic acid A (GAA) PROTACs as MDM2 protein degraders for the treatment of breast cancer” (Eur J Med Chem, 2024).
Calls of active or inactive are those of the source. The rule behind the calls is not given here.

What was measured:
[1] = Toxicity in zebrafish assessed as mortality rate at 6.25 ug/ml; design: species or system Danio rerio; conditions: in vivo, at 6.25 µg/mL, read-out: Activity
MDA-MB-231 [2] = experiment: Induction of apoptosis in human MDA-MB-231 cells assessed as early apoptotic cells at 40 uM incubated for 48 hrs by Annexin-V FITC/PI staining based flow cytometry analysis (reference value: 3.37%); assay type: functional
MDA-MB-231 [3] = experiment: Induction of apoptosis in human MDA-MB-231 cells assessed as viable cells at 20 uM incubated for 48 hrs by Annexin-V FITC/PI staining based flow cytometry analysis (reference value: 90.3%); assay type: functional; conditions: read-out: Activity
SJSA-1 = experiment: Antiproliferative activity against human SJSA-1 cells assessed as cell viability at 100 uM incubated for 48 to 72 hrs by MTT assay; assay type: functional; conditions: time 48-72 hrs, read-out: Activity
[4] = Cytotoxicity against mouse HT-22 cells assessed as cell viability at 100 uM incubated for 48 to 72 hrs by MTT assay; assay type: toxicity, cell-based; conditions: time 48-72 hrs, read-out: Activity
MDA-MB-231 [5] = experiment: Induction of apoptosis in human MDA-MB-231 cells assessed as necrotic cells at 80 uM incubated for 48 hrs by Annexin-V FITC/PI staining based flow cytometry analysis (reference value: 0.26%); assay type: functional
MDA-MB-231 [6] = experiment: Antitumor activity against human MDA-MB-231 cells xenografted in zebrafish assessed as inhibition rate at 12.5 ug/ml after 2 days by fluorescence microscopic method; assay type: functional; design: scale not given: the % may be the effect or the level left; conditions: dose 12.5 µg/ml; time 2 day
[7] = Toxicity in zebrafish assessed as mortality rate at 100 ug/ml; design: species or system Danio rerio; conditions: in vivo, at 100 µg/mL, read-out: Activity
[8] = Toxicity in zebrafish assessed as appearance of toxic phenotype at < 50 ug/ml; design: species or system Danio rerio; conditions: in vivo, dose < 50 µg/ml
[9] = Toxicity in zebrafish assessed as minimum toxic concentration measured after 2 days; design: species or system Danio rerio; conditions: in vivo, 48 h, time 2 day
[10] = Toxicity in zebrafish assessed as mortality rate at 12.5 ug/ml; design: species or system Danio rerio; conditions: in vivo, at 12.5 µg/mL, read-out: Activity
MDA-MB-231 [11] = experiment: Induction of apoptosis in human MDA-MB-231 cells assessed as reduction in bcl-2/bax ratio at 20 to 40 uM by Western blotting analysis; assay type: functional, cell-based; conditions: dose 20-40 µM
MDA-MB-231 [12] = experiment: Induction of cell cycle arrest in human MDA-MB-231 cells assessed as increase in number of G1 phase cells at 80 uM after 48 hrs by PI/RNase staining based flow cytometry analysis; assay type: functional
[13] = Toxicity in zebrafish assessed as mortality rate at 25 ug/ml; design: species or system Danio rerio; conditions: in vivo, at 25 µg/mL, read-out: Activity
[14] = biological target: T1, von Hippel-Lindau disease tumor suppressor/E3 ubiquitin-protein ligase Mdm2 (Homo sapiens, UniProt Q00987+P40337); experiment: Protac activity at VHL/MDM2 in human MDA-MB-231 cells assessed as reduction in MDM2 protein level at 80 uM after 48 hrs by Western blotting analysis; assay type: cell-based; design: scale not given: the % may be the effect or the level left
T1 sequence (P40337 whole entry, looked up): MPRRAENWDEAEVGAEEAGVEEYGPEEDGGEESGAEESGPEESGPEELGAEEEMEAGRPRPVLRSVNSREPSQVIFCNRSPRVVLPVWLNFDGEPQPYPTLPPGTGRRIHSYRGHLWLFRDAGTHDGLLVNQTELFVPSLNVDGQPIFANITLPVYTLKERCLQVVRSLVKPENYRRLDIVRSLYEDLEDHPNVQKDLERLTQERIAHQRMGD
T1 sequence (Q00987 whole entry, looked up): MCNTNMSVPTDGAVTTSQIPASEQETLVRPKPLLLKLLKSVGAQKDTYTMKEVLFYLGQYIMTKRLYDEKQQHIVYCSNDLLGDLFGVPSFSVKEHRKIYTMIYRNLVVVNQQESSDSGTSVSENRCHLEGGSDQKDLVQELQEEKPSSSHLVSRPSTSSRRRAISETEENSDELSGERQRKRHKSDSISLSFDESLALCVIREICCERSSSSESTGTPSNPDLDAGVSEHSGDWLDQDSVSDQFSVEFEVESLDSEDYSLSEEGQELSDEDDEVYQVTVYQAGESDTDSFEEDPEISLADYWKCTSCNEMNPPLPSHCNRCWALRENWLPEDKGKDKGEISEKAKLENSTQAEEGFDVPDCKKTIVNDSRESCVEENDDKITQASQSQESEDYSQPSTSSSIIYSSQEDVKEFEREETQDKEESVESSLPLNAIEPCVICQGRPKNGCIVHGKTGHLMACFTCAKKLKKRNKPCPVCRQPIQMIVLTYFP

[15] = biological target: T1, von Hippel-Lindau disease tumor suppressor/E3 ubiquitin-protein ligase Mdm2; experiment: Protac activity at VHL/MDM2 in human MDA-MB-231 cells assessed as reduction in MDM2 protein level after 48 hrs by Western blotting analysis; assay type: cell-based; conditions: dose 20-80 µM
MDA-MB-231 [16] = experiment: Induction of apoptosis in human MDA-MB-231 cells assessed as viable cells at 80 uM incubated for 48 hrs by Annexin-V FITC/PI staining based flow cytometry analysis (reference value: 90.3%); assay type: functional; conditions: read-out: Activity
MDA-MB-231 [17] = experiment: Antitumor activity against human MDA-MB-231 cells xenografted in zebrafish assessed as inhibition rate at 25 ug/ml after 2 days by fluorescence microscopic method; assay type: functional; design: scale not given: the % may be the effect or the level left; conditions: dose 25 µg/ml; time 2 day
MDA-MB-231 [18] = experiment: Upregulation of p21 expression in human MDA-MB-231 cells at 20 to 80 uM incubated for 48 hrs by immunofluorescence analysis; assay type: functional, cell-based; conditions: dose 20-80 µM
MDA-MB-231 [19] = experiment: Induction of G1/S phase arrest in human MDA-MB-231 cells assessed as increase in p21 mRNA expression at 20 to 80 uM by qRT-PCR analysis; assay type: functional, cell-based; conditions: dose 20-80 µM
MDA-MB-231 [20] = experiment: Induction of apoptosis in human MDA-MB-231 cells assessed as early apoptotic cells at 80 uM incubated for 48 hrs by Annexin-V FITC/PI staining based flow cytometry analysis (reference value: 3.37%); assay type: functional
MDA-MB-231 [21] = experiment: Induction of cell cycle arrest in human MDA-MB-231 cells assessed as decrease in number of S phase cells at 80 uM after 48 hrs by PI/RNase staining based flow cytometry analysis; assay type: functional
HepG2 = experiment: Antiproliferative activity against human HepG2 cells assessed as cell viability at 100 uM incubated for 48 to 72 hrs by MTT assay; assay type: functional; conditions: time 48-72 hrs, read-out: Activity
MDA-MB-231 [22] = experiment: Induction of apoptosis in human MDA-MB-231 cells assessed as late apoptotic cells at 40 uM incubated for 48 hrs by Annexin-V FITC/PI staining based flow cytometry analysis (reference value: 6.04%); assay type: functional
MDA-MB-231 [23] = experiment: Inhibition of cell migration in human MDA-MB-231 cells at 80 uM incubated for 48 hrs by wound healing assay; assay type: functional, cell-based
[24] = biological target: T2, E3 ubiquitin-protein ligase Mdm2 (Homo sapiens, UniProt Q00987); experiment: Binding affinity to MDM2 (unknown origin) assessed as increase in protein stability incubated for 30 mins by CETSA
Target sequence in this assay (Q00987 whole entry, looked up): as above

MDA-MB-231 [25] = experiment: Induction of apoptosis in human MDA-MB-231 cells assessed as viable cells at 40 uM incubated for 48 hrs by Annexin-V FITC/PI staining based flow cytometry analysis (reference value: 90.3%); assay type: functional; conditions: read-out: Activity
[26] = biological target: T2, E3 ubiquitin-protein ligase Mdm2; experiment: Binding affinity to MDM2 (unknown origin) by SPR assay
Target sequence in this assay (Q00987 whole entry): as the sequence (Q00987 whole entry, looked up) above

MDA-MB-231 [27] = experiment: Induction of apoptosis in human MDA-MB-231 cells assessed as late apoptotic cells at 80 uM incubated for 48 hrs by Annexin-V FITC/PI staining based flow cytometry analysis (reference value: 6.04%); assay type: functional
MCF7 = experiment: Antiproliferative activity against human MCF7 cells assessed as cell viability at 100 uM incubated for 48 to 72 hrs by MTT assay; assay type: functional; conditions: time 48-72 hrs, read-out: Activity
MDA-MB-231 [28] = experiment: Induction of apoptosis in human MDA-MB-231 cells assessed as late apoptotic cells at 20 uM incubated for 48 hrs by Annexin-V FITC/PI staining based flow cytometry analysis (reference value: 6.04%); assay type: functional
[29] = Toxicity in zebrafish assessed as mortality rate at 50 ug/ml; design: species or system Danio rerio; conditions: in vivo, at 50 µg/mL, read-out: Activity
MDA-MB-231 [30] = experiment: Antiproliferative activity against human MDA-MB-231 cells assessed as cell viability at 100 uM incubated for 48 to 72 hrs by MTT assay; assay type: functional; conditions: time 48-72 hrs, read-out: Activity
MDA-MB-231 [31] = experiment: Induction of apoptosis in human MDA-MB-231 cells assessed as necrotic cells at 40 uM incubated for 48 hrs by Annexin-V FITC/PI staining based flow cytometry analysis (reference value: 0.26%); assay type: functional
MDA-MB-231 [32] = experiment: Downregulation of MDM2 expression in human MDA-MB-231 cells at 20 to 80 uM incubated for 48 hrs by immunofluorescence analysis; assay type: functional, cell-based; conditions: dose 20-80 µM
[33] = Toxicity in zebrafish assessed as death at < 50 ug/ml; design: species or system Danio rerio; conditions: in vivo, dose < 50 µg/ml
MDA-MB-231 [34] = experiment: Inhibition of cell migration in human MDA-MB-231 cells at 80 uM incubated for 24 hrs by wound healing assay; assay type: functional, cell-based
MDA-MB-231 [35] = experiment: Induction of cell cycle arrest in human MDA-MB-231 cells assessed as increase in number of G2 phase cells at 80 uM after 48 hrs by PI/RNase staining based flow cytometry analysis; assay type: functional
MDA-MB-231 [36] = experiment: Induction of G2/M phase arrest in human MDA-MB-231 cells assessed as decrease in cyclin B1 protein expression at 20 to 80 uM by Western blotting analysis; assay type: functional, cell-based; conditions: dose 20-80 µM
MDA-MB-231 [37] = experiment: Induction of apoptosis in human MDA-MB-231 cells assessed as necrotic cells at 20 uM incubated for 48 hrs by Annexin-V FITC/PI staining based flow cytometry analysis (reference value: 0.26%); assay type: functional
[38] = biological target: T1, von Hippel-Lindau disease tumor suppressor/E3 ubiquitin-protein ligase Mdm2; experiment: Protac activity at VHL/MDM2 in human MDA-MB-231 cells assessed as upregulation of p21 level at 20 to 80 uM after 48 hrs by Western blotting analysis; assay type: cell-based; conditions: dose 20-80 µM
MDA-MB-231 [39] = experiment: Induction of apoptosis in human MDA-MB-231 cells assessed as early apoptotic cells at 20 uM incubated for 48 hrs by Annexin-V FITC/PI staining based flow cytometry analysis (reference value: 3.37%); assay type: functional
[40] = biological target: T1, von Hippel-Lindau disease tumor suppressor/E3 ubiquitin-protein ligase Mdm2; experiment: Protac activity at VHL/MDM2 in human MDA-MB-231 cells assessed as reduction in MDM2 protein level at 80 uM pretreated with MG-132 for 2 hrs followed by compound addition and measured after 48 hrs by Western blotting analysis; assay type: cell-based
MDA-MB-231 [41] = experiment: Antitumor activity against human MDA-MB-231 cells xenografted in zebrafish assessed as inhibition rate at 50 ug/ml after 2 days by fluorescence microscopic method; assay type: functional; design: scale not given: the % may be the effect or the level left; conditions: dose 50 µg/ml; time 2 day

Compound: Cc1ncsc1-c1ccc([C@H](C)NC(=O)[C@@H]2C[C@@H](O)CN2C(=O)[C@@H](NC(=O)CCCCc2cn(CCOCCOCCOCCOCCNC(=O)[C@H](C)CC(=O)C[C@@H](C)[C@H]3C[C@H](O)[C@@]4(C)C5=C(C(=O)C[C@]34C)[C@@]3(C)CCC(=O)C(C)(C)[C@@H]3C[C@@H]5O)nn2)C(C)(C)C)cc1
- mortality at 6.25 ug/ml [1]: 0%
- Activity (MDA-MB-231 [2]): 7.17%
- viability at 20 µM (MDA-MB-231 [3]): 90.1%
- viability at 100 µM (SJSA-1): 61.3%
- viability at 100 µM [4]: 91.3%
- Activity (MDA-MB-231 [5]): 0.82%
- Activity (MDA-MB-231 [6]): 16.8%
- mortality at 100 ug/ml [7]: 13%
- Activity [8]: Non-Toxic
- MTC [9]: 50 µg/mL
- mortality at 12.5 ug/ml [10]: 0%
- Activity (MDA-MB-231 [11]): Active
- Activity (MDA-MB-231 [12]): Active
- mortality at 25 ug/ml [13]: 0%
- Activity [14]: 51%
- Activity [15]: Dose-Dependent Effect
- viability at 80 µM (MDA-MB-231 [16]): 41.4%
- Activity (MDA-MB-231 [17]): 23.4%
- Activity (MDA-MB-231 [18]): Active
- Activity (MDA-MB-231 [19]): Active
- Activity (MDA-MB-231 [20]): 47.4%
- Activity (MDA-MB-231 [21]): Active
- viability at 100 µM (HepG2): 92.9%
- Activity (MDA-MB-231 [22]): 10.4%
- inhibition (MDA-MB-231 [23]): Active
- Activity [24]: Active
- viability at 40 µM (MDA-MB-231 [25]): 82.3%
- Kd [26]: 38.2 µM
- Activity (MDA-MB-231 [27]): 10.4%
- viability at 100 µM (MCF7): 30.6%
- Activity (MDA-MB-231 [28]): 5.34%
- mortality at 50 ug/ml [29]: 0%
- viability at 100 µM (MDA-MB-231 [30]): 16.9%
- Activity (MDA-MB-231 [31]): 0.13%
- Activity (MDA-MB-231 [32]): Active
- Activity [33]: Non-Toxic
- inhibition (MDA-MB-231 [34]): Active
- Activity (MDA-MB-231 [35]): Active
- Activity (MDA-MB-231 [36]): Active
- Activity (MDA-MB-231 [37]): 0.21%
- Activity [38]: Active
- Activity (MDA-MB-231 [39]): 4.38%
- Activity [40]: inactive
- Activity (MDA-MB-231 [41]): 27.2%
